Results as given in ChEMBL document CHEMBL3132769, “Fragment growing to retain or alter the selectivity of anchored kinase hinge-binding fragments” (Medchemcomm, 2014).

Assays:
[1] = biological target: Mitogen-activated protein kinase 1 (Homo sapiens) (UniProt P28482); assay: Inhibition of human full length ERK2 expressed in Escherichia coli cell assessed as substrate phosphorylation using fluorescence-labelled peptides as substrate at 9 uM after 90 mins by microfluidic peptide phosphorylation assay
Homo sapiens = species: Homo sapiens; assay: Inhibition of human P70S6K catalytic domain expressed in baculovirus assessed as substrate phosphorylation using fluorescence-labelled peptides as substrate at 95 uM after 90 mins by microfluidic peptide phosphorylation assay
[2] = biological target: T1, Aurora kinase A (Homo sapiens) (UniProt O14965); assay: Inhibition of human full length AurA expressed in baculovirus assessed as substrate phosphorylation using fluorescence-labelled peptides as substrate at 0.06 uM after 90 mins by microfluidic peptide phosphorylation assay
T1 sequence (whole entry): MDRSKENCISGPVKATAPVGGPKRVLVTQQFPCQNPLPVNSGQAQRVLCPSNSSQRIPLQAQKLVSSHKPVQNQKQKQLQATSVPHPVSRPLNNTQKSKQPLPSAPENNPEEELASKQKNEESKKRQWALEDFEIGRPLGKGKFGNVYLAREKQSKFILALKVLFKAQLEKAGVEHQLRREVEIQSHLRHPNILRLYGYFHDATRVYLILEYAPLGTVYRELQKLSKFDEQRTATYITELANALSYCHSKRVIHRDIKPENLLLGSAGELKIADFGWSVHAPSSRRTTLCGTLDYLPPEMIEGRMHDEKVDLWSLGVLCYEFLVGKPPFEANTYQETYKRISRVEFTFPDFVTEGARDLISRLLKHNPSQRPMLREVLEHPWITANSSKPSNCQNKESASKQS

[3] = biological target: MAP/microtubule affinity-regulating kinase 3 (Homo sapiens) (UniProt P27448); assay: Inhibition of human full length c-TAK1 expressed in Escherichia coli cell assessed as substrate phosphorylation using fluorescence-labelled peptides as substrate at 0.1 uM after 90 mins by microfluidic peptide phosphorylation assay
[4] = system: Fibroblast growth factor receptor 2 (Homo sapiens), P21802 [N549H]; assay: Inhibition of human FGFR2 N549H mutant catalytic domain expressed in baculovirus assessed as substrate phosphorylation using fluorescence-labelled peptides as substrate at […] after 90 mins by microfluidic peptide phosphorylation assay
[5] = biological target: Tyrosine-protein kinase Fyn (Homo sapiens) (UniProt P06241); assay: Inhibition of human full length FYN expressed in baculovirus assessed as substrate phosphorylation using fluorescence-labelled peptides as substrate at […] after 90 mins by microfluidic peptide phosphorylation assay
[6] = biological target: T2, MAP kinase-activated protein kinase 5 (Homo sapiens) (UniProt Q8IW41); assay: Inhibition of human full length PRAK expressed in baculovirus assessed as substrate phosphorylation using fluorescence-labelled peptides as substrate at […] after 90 mins by microfluidic peptide phosphorylation assay
T2 sequence (whole entry): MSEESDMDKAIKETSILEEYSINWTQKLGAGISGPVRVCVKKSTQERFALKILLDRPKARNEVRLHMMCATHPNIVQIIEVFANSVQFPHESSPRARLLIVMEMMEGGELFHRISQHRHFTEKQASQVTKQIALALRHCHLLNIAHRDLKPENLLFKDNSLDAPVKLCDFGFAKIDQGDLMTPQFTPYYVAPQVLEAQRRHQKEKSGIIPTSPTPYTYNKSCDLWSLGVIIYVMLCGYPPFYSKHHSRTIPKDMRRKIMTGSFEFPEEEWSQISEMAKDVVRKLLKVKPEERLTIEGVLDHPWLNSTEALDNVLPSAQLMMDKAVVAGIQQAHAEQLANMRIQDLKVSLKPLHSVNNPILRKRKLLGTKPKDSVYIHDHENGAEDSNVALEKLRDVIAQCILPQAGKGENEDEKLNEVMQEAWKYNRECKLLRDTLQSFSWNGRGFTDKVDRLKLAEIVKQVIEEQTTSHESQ

[7] = biological target: T3, Inhibitor of nuclear factor kappa-B kinase subunit beta (Homo sapiens) (UniProt O14920); assay: Inhibition of human full length IKK beta expressed in baculovirus assessed as substrate phosphorylation using fluorescence-labelled peptides as substrate at 70 uM after 90 mins by microfluidic peptide phosphorylation assay
T3 sequence (whole entry): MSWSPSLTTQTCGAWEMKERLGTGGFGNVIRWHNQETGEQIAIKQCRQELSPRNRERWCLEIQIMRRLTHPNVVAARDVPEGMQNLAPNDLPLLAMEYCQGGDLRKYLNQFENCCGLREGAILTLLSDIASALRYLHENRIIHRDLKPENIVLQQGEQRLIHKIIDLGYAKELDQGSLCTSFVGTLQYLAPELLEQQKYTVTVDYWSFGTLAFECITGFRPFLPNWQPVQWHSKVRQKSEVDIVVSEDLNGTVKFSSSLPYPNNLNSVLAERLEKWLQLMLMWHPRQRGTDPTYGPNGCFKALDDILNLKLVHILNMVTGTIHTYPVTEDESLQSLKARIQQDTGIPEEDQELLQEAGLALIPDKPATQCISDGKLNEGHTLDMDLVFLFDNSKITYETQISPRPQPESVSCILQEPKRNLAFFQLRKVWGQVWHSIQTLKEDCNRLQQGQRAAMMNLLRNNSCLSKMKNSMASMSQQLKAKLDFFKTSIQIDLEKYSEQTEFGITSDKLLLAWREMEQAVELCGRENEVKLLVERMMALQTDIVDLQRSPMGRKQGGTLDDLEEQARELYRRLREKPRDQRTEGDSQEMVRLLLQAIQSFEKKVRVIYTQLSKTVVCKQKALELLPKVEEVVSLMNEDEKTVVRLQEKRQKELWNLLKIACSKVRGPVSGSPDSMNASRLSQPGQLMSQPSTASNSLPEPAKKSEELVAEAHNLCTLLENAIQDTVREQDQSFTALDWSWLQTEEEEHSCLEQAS

[8] = biological target: Tyrosine-protein kinase HCK (Homo sapiens) (UniProt P08631); assay: Inhibition of human HCK catalytic domain expressed in baculovirus assessed as substrate phosphorylation using fluorescence-labelled peptides as substrate at 0.2 uM after 90 mins by microfluidic peptide phosphorylation assay
[9] = biological target: Ribosomal protein S6 kinase alpha-4 (Homo sapiens) (UniProt O75676); assay: Inhibition of human full length MSK2 expressed in baculovirus assessed as substrate phosphorylation using fluorescence-labelled peptides as substrate at 0.2 uM after 90 mins by microfluidic peptide phosphorylation assay
[10] = biological target: Ribosomal protein S6 kinase alpha-4 (Homo sapiens) (UniProt O75676); assay: Inhibition of human full length MSK2 expressed in baculovirus assessed as substrate phosphorylation using fluorescence-labelled peptides as substrate at 2 uM after 90 mins by microfluidic peptide phosphorylation assay
[11] = biological target: Vascular endothelial growth factor receptor 2 (Homo sapiens) (UniProt P35968); assay: Inhibition of human KDR cytoplasmic domain expressed in baculovirus assessed as substrate phosphorylation using fluorescence-labelled peptides as substrate at 8 uM after 90 mins by microfluidic peptide phosphorylation assay
Chain of Vascular endothelial growth factor receptor 2 (Homo sapiens) (P35968 whole entry, the tested form may be a part): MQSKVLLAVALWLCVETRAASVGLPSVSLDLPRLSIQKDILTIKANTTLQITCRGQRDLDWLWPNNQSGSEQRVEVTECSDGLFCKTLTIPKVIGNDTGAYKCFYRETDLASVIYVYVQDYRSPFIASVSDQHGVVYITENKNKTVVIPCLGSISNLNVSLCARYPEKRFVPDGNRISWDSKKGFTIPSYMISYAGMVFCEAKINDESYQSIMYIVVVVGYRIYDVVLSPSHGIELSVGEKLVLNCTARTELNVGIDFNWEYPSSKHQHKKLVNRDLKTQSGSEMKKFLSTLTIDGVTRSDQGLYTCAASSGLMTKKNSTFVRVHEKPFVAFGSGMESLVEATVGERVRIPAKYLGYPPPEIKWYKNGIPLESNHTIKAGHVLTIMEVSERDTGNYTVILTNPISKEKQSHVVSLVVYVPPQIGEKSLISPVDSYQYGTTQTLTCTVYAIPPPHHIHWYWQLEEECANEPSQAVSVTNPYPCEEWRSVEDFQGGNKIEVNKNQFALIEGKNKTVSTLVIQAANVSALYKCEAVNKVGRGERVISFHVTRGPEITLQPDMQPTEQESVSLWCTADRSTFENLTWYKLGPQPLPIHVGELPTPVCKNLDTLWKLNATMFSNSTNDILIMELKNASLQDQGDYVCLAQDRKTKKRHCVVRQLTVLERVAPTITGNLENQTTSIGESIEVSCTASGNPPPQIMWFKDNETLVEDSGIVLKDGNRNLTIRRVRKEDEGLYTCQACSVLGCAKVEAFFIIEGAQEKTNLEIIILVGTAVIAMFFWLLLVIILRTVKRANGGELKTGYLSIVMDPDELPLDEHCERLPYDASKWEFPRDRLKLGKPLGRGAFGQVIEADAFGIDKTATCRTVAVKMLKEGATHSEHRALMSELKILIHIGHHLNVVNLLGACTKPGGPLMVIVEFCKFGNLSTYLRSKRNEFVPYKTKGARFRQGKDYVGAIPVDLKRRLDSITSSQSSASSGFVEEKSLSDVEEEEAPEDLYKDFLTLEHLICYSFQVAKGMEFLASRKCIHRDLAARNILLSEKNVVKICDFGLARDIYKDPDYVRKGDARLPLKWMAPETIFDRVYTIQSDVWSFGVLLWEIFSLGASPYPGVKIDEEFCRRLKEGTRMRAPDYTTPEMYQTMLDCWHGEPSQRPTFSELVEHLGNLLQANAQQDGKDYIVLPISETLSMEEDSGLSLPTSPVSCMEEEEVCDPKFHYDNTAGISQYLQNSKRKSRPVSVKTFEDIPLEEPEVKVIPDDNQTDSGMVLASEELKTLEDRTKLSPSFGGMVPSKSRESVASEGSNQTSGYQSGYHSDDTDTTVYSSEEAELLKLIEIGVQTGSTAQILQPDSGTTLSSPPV

Chain of Ribosomal protein S6 kinase alpha-4 (Homo sapiens) (O75676 whole entry, looked up, the tested form may be a part): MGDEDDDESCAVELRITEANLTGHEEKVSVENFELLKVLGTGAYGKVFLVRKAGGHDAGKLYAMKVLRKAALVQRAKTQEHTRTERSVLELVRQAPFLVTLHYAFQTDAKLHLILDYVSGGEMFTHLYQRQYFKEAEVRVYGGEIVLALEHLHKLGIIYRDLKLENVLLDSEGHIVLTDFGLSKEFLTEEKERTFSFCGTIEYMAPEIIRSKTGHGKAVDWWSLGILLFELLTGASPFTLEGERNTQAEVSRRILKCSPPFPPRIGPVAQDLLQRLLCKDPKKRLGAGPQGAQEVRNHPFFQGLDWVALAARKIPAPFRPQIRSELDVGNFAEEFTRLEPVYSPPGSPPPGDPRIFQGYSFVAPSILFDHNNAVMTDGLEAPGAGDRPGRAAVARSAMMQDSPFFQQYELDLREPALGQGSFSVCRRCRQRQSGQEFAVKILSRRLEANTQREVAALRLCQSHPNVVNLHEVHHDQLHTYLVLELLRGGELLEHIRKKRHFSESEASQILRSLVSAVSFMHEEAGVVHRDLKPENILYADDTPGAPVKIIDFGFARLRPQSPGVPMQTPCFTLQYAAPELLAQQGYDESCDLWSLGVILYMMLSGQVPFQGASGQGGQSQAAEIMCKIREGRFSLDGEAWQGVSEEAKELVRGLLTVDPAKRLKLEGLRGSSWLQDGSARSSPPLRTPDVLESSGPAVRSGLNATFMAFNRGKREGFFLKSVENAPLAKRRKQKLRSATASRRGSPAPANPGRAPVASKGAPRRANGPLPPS
Chain of MAP/microtubule affinity-regulating kinase 3 (Homo sapiens) (P27448 whole entry, looked up, the tested form may be a part): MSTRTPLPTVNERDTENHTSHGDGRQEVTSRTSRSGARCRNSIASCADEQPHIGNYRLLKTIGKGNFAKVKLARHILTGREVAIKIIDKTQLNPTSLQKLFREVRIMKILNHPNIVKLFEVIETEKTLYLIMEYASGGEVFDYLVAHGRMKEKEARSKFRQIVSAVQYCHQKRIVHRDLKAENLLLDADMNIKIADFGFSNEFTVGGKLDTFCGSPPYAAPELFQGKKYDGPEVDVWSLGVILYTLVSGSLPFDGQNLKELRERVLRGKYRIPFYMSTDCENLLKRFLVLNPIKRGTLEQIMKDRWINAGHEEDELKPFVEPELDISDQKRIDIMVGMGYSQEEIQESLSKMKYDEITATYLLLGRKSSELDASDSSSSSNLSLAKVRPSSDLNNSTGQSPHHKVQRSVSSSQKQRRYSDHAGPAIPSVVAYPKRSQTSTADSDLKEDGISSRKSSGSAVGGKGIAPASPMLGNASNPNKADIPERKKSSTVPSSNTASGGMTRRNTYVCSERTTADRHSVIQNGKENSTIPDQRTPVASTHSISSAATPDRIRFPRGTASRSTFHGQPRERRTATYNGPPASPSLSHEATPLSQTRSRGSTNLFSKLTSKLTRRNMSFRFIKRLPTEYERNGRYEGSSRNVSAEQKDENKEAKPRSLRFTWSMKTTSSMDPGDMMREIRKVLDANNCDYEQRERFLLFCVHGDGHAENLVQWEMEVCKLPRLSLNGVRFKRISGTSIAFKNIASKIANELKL
Chain of Fibroblast growth factor receptor 2 (Homo sapiens), P21802 [N549H] (P21802 whole entry N549H, the tested form may be a part): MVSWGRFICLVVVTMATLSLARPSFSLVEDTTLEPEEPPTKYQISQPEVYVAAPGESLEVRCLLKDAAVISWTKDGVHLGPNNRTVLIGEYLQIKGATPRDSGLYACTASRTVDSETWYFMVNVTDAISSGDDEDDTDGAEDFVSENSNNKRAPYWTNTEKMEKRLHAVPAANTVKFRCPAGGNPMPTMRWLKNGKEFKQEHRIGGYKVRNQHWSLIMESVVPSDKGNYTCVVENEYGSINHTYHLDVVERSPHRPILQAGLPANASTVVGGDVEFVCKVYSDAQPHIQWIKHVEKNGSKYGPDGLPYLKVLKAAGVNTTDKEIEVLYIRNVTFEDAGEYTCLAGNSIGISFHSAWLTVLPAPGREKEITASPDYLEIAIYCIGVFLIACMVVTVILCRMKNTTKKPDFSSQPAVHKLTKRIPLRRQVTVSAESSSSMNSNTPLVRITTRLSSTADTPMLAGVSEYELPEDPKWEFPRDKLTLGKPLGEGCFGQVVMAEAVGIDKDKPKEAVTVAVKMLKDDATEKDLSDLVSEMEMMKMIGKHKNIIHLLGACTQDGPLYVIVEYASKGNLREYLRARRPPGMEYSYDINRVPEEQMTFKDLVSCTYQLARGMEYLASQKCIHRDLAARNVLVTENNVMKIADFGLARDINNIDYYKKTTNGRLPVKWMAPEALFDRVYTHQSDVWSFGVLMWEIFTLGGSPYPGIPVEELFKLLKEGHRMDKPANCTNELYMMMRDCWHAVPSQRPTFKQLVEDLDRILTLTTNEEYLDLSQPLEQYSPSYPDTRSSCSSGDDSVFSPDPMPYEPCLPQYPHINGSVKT
Chain of Tyrosine-protein kinase HCK (Homo sapiens) (P08631 2-526 limits assumed): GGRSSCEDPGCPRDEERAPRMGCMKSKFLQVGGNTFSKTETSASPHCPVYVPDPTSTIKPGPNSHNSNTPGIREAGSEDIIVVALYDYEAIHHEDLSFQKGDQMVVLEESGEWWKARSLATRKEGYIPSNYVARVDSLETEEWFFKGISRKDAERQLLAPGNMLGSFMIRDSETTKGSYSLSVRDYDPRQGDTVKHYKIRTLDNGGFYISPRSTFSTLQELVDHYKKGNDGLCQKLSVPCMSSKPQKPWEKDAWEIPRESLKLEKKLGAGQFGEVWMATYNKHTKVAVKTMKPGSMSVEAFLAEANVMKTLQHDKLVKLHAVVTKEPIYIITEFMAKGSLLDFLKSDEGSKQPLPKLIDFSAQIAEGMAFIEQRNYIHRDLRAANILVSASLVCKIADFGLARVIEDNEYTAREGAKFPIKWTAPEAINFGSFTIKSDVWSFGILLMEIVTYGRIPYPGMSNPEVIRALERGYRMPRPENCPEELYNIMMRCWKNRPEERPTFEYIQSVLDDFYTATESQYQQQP
Chain of Mitogen-activated protein kinase 1 (Homo sapiens) (P28482 whole entry, the tested form may be a part): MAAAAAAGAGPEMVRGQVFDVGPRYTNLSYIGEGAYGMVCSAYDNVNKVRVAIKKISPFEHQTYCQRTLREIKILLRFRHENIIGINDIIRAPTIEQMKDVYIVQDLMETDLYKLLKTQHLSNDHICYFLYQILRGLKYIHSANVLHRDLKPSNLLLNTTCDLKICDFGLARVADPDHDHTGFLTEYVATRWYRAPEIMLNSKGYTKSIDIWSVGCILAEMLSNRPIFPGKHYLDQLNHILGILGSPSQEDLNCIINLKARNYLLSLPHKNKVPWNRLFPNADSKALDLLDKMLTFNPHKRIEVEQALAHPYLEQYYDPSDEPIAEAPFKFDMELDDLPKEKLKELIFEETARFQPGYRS

For `NCC1CN(c2ncnc3[nH]c4cnccc4c23)CCO1` (configuration not stated), the inhibition [1] was 1.5%.
Molecule `NCCc1ccc(-c2ncnc3[nH]cnc23)cc1` has an inhibition (Homo sapiens) of 49%.
`NC1(Cc2ccc(Cl)cc2)CCN(c2ncnc3[nH]ccc23)CC1` showed an inhibition [2] of 7.5%.
With `C[C@H](CN(C)C)Oc1nc(Nc2cc3cccc(Cl)c3cn2)cnc1C#N` the inhibition [3] was 6%.
In the case of `COC(=O)c1cnc(Nc2cnc(C#N)cn2)cc1NCC1CCNCC1`, the inhibition [4] is reported as 6.5%, the inhibition [5] is reported as 2% and the inhibition [6] is reported as 4%.
`CNCc1ccc(-c2ncnc3[nH]cnc23)cc1` was tested, and the inhibition [7] was 90.5%.
Molecule `Clc1ccc(C2(c3ccc(-c4ncnc5[nH]cnc45)cc3)CCNCC2)cc1` has an inhibition [8] of 35% and an inhibition [9] of 82.5%.
For `NC1CCN(c2ncnc3[nH]ccc23)CC1`, the inhibition [10] was 15%.
With `NCC1CCN(c2ncnc3[nH]ccc23)CC1` the inhibition [11] was 50%.
